By IC50 is commonly meant the concentration that gives 50% inhibition.

Assay [1] has as its target JNK2 (Homo sapiens, UniProt P45984). The assay can be described thus: JNK2 SPA assay. Format: biochemical. The settings on record: 3.33 μM ATP, GST-c-Jun substrate. As for the experimental part: (§1) JNK1, JNK2, JNK3—SPA Assay
(§2) JNK1, JNK2, JNK3—SPA Assay • 1. Compound is dissolved in DMSO to a convenient concentration and this is diluted in 10% DMSO to a five times concentrate of the desired starting concentration (frequently 1:100). • 2. 10 μl of 500 mM EDTA is added to alternative wells of the Opti-plate row, which will receive kinase reaction plus DMSO. This creates the negative control. • 3. For the JNK2 and JNK3 assay, compounds are prepared in six 2-fold dilutions with water and each concentration is tested in duplicate. For the JNK1 assay compounds are prepared in four 5-fold dilutions with water which are tested in triplicate. Controls are treated identically. • 4. 20 μl per well of each compound concentration is transferred to an Opti-plate, in duplicate. • 5. 30 μl (JNK2/3 SPA) or 50 μl (JNK1 SPA) of substrate solution (25 mM HEPES pH 7.5, 10 mM magnesium acetate with 3.33 μM ATP (JNK2/3) or 2 μM ATP (JNK1), approximately 7.5 kBq [γ-^33P] ATP, GST-c-Jun, in water) is added to each well. • 6. 50 μl (JNK2/3 SPA) or 30 μl (JNK1 SPA) of kinase solution (JNK in 25 mM HEPES pH 7.5, 10 mM Mg Acetate) is added to each well.
(§3) • 7. The plate is incubated for 30 minutes at room temperature. • 8. […] Plates are sealed and incubated for 30 minutes at room temperature, centrifuged for 10 minutes at 2500 g and counted. • 10. […]

For assay [2], the target named is JNK1 (Homo sapiens, UniProt P45983). In words: JNK1 SPA assay. Format: biochemical. The settings on record: 2 μM ATP, GST-c-Jun substrate. The protocol:
as §1, §2, §3

Assay [3] deals with panel of 100 kinases. In words: Selectivity against a panel of 100 kinases (Upstate/Millipore), expressed as Gini coefficient. Format: biochemical. Particulars: calculated from remaining activity at 1 micromolar compound, 10 micromolar ATP, 0 = non-selective, 1 = perfect selectivity. As for the experimental part:
Inhibitory potency of compounds (I) at a concentration of 1 micromolar and with ATP concentration of 10 micromolar was determined at Upstate/Millipore against a panel of 100 kinases representing all major families within the kinome. The results are presented in Table 3 and are expressed as percentage of remaining activity.
For comparison purposes Table 4 contains the relevant inhibitory data for reference compounds A-K containing a (hetero)aromatic ring at C(5) of the 7-azaindole system.
Selectivity of compounds according to the present invention and reference compounds expressed as Gini coefficient (J. Med. Chem. 2007, 50, 5773-5779) is shown in Table 5. The individual Gini coefficients have been calculated using the data in Tables 3 and 4. Value Gini=0 corresponds to a totally non-selective compound; value Gini=1 reflects perfect selectivity (inhibition of a single target only)

In assay [4] the target is JNK3 (Homo sapiens, UniProt P53779). In words: JNK3 SPA assay. Format: biochemical. Particulars: 3.33 μM ATP, GST-c-Jun substrate; read-out: IC50 against JNK3. A digest of the protocol:
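Radiometric SPA using GST-c-Jun with [γ-33P]ATP in 25 mM HEPES pH 7.5 and 10 mM Mg acetate; the substrate solution held 3.33 µM ATP (JNK2/3) or 2 µM ATP (JNK1). Reactions ran 30 min at room temperature and were stopped with glutathione SPA beads plus 40 mM ATP. IC50 is the concentration halving c-Jun phosphorylation versus control.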

Assay [5] relates to TNFα. The assay can be described thus: LPS-induced TNFα suppression in mice (plasma TNFα, ELISA). Particulars: Mus musculus, po; 20 mg/kg p.o. 30 min before LPS 10 mg/kg i.p.; 1 hour after LPS; versus vehicle-treated animals; read-out: Percentage reduction in the level of TNFα in plasma. Format: in vivo, male C57/B16 mice. The protocol: (§4) The studies were carried out in male C57/B16 mice. Compounds (20 mg/kg; p.o.) were administered 30 minutes before injection of lipopolysaccharide (LPS). LPS was administered intraperitoneally at a dose of 10 mg/kg. Animals were sacrificed 1 hour following LPS injection. Blood was collected into heparinized tubes for measurement of plasma TNFα levels and spleens were collected for the measurement of c-Jun phosphorylation. Plasma TNFα was measured using an ELISA kit purchased from R&D systems. Spleens were homogenised, extracted in high salt (250 mM NaCl) lysis buffer with phosphatase inhibitors and c-Jun phosphorylation was measured using HTRF. The suppressive effect of compounds was calculated as the percentage reduction of the TNFα level in plasma and P-c-Jun level in spleen as compared with the vehicle-treated animals.
(In general: An ELISA detects its analyte on a solid surface through an enzyme-linked reagent.)

Assay [6] deals with c-Jun phosphorylation. The assay can be described thus: LPS-induced c-Jun phosphorylation in spleen of mice (HTRF). Format: in vivo, male C57/B16 mice. Particulars: Mus musculus, po; 20 mg/kg p.o. 30 min before LPS 10 mg/kg i.p.; 1 hour after LPS; versus vehicle-treated animals; read-out: Percentage reduction in the level of P-c-Jun in spleen. As for the experimental part: as §4

Assay [7] deals with MOG (35-55)-induced EAE. The assay can be described thus: MOG (35-55)-induced experimental autoimmune encephalomyelitis (EAE) in mice. Format: in vivo, C57/B16J mice. The settings on record: 20 mg/kg, p.o., once daily, from appearance of symptoms.

Chain of JNK3 (P53779 whole entry, species assumed): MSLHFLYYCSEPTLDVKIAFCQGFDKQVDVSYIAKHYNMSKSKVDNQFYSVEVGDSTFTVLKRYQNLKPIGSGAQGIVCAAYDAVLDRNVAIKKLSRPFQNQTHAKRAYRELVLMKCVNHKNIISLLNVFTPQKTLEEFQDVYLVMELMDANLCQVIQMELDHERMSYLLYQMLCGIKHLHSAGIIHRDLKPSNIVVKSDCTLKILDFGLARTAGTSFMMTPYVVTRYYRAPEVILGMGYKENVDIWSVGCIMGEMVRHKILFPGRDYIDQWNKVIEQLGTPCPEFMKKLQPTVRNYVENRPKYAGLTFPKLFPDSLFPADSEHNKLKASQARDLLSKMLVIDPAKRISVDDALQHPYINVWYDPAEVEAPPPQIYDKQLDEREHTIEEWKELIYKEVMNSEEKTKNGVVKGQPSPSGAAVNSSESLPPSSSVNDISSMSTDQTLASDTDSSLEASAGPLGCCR
Chain of JNK1 (P45983 whole entry, species assumed): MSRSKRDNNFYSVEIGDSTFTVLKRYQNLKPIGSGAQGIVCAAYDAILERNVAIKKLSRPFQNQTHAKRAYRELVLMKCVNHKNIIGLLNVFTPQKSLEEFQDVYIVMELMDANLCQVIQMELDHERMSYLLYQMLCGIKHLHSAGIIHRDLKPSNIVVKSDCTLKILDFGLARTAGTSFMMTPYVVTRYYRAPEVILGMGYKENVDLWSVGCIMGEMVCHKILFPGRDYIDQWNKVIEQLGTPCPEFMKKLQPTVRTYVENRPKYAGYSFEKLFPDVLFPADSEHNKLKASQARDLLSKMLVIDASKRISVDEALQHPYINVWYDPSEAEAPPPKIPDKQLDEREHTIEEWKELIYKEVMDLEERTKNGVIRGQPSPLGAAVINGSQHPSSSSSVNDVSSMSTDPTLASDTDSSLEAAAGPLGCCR
Chain of JNK2 (P45984 whole entry, species assumed): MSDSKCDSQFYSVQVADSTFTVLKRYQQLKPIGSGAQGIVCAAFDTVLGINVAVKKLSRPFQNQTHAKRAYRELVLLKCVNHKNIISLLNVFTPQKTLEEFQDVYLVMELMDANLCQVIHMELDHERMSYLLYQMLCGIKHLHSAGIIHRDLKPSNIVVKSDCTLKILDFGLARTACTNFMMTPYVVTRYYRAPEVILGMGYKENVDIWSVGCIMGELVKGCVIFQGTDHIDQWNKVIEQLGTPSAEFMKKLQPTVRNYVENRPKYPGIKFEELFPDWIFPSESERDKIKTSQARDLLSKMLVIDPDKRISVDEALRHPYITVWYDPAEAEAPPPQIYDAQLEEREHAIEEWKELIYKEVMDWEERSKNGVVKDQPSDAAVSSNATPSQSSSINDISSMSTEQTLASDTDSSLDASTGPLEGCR

`CN1CCN([C@H]2CC[C@H](c3cnc4[nH]cc(-c5cnn(C)c5)c4c3)CC2)CC1` [compound 25]: the IC50 in assay [1] is 245 nM; in assay [2], 191 nM. For the same compound, the “Gini coefficient, compounds (I), non-aromatic C(5) group” value in assay [3] is reported as 0.6769.
As for `CC1CCC(c2cnc3[nH]cc(-c4cnn(C)c4)c3c2)CC1` (stereo not drawn) [compound 3], the IC50 was 501 nM in assay [1] and 178 nM in assay [2].
As for `CN1CCN(C(=O)c2nc(-c3c[nH]c4ncc(-c5ccc(N6CCN(C)CC6)cc5)cc34)cs2)CC1` [J], the “Gini coefficient, reference compounds, aromatic C(5) group” value in assay [3] is listed as 0.3286.
`Cn1cc(-c2c[nH]c3ncc([C@H]4CC[C@H](N5CCOCC5)CC4)cc23)cn1` [Compound I-6, 4-((1r,4r)-4-(3-(1-methyl-1H-pyrazol-4-yl)-1H-pyrrolo[2,3-b]pyridin-5-yl)cyclohexyl)morpholine]: the IC50 in assay [4] came to 80 nM. Further, the inhibition in vivo at 20 mg/kg in assay [5] was 82%; in assay [6], 41%. Further, in assay [7] (FIG. 10), the “total white matter area in the lumbar spinal cord” value is “preservation”. In assay [7] (FIG. 11), the “neuronal numbers in the ventral horn of the lumbar spinal cords” value is reported as “preservation”. Moreover, the “demyelination in the lumbar spinal cord” value in assay [7] (FIG. 12) is on record as “decrease”.
Consider `CN(C)c1ccc(-c2cnc3[nH]cc(-c4cn[nH]c4)c3c2)cc1` [A], for which the “Gini coefficient, reference compounds, aromatic C(5) group” value in assay [3] was 0.3368.
The same measure, in the same setting: for `CN1CCC(c2csc(-c3cnc4[nH]cc(-c5cnn(C)c5)c4c3)n2)CC1` [E] the value was 0.3757.
The same measure, in the same setting: the same measure for `CN(C)C(=O)c1nc(-c2c[nH]c3ncc(-c4ccccc4)cc23)cs1` [G]: 0.3501.
For `Cn1cc(-c2c[nH]c3ncc([C@H]4CC[C@@H](N(C)C)CC4)cc23)cn1` [Compound I-72, (1s,4s)-N,N-dimethyl-4-(3-(1-methyl-1H-pyrazol-4-yl)-1H-pyrrolo[2,3-b]pyridin-5-yl)cyclohexanamine], in assay [4], the IC50 was found to be 259 nM. Moreover, the results for the inhibition in vivo at 20 mg/kg in assay [5] and in assay [6] were 84% and 15%, respectively.
The like results for `CC1CCC(c2cnc3[nH]cc(-c4cnn(C)c4)c3c2)CC1` (mixture of isomers) [Compound I-3, 3-(1-methyl-1H-pyrazol-4-yl)-5-(4-methylcyclohexyl)-1H-pyrrolo[2,3-b]pyridine] were, in that order, 58 nM, 60% and 0%.
The corresponding values for `Cn1cc(-c2c[nH]c3ncc(C4=CCCC5C4C5(C)C)cc23)cn1` (stereo not drawn) [Compound I-141, 5-(7,7-dimethylbicyclo[4.1.0]hept-2-en-2-yl)-3-(1-methyl-1H-pyrazol-4-yl)-1H-pyrrolo[2,3-b]pyridine] are 288 nM, 43% and 4%.
The like results for `Cn1cc(-c2c[nH]c3ncc(C4CC5CCC4C5)cc23)cn1` (stereo not drawn) [Compound I-137, 5-(bicyclo[2.2.1]heptan-2-yl)-3-(1-methyl-1H-pyrazol-4-yl)-1H-pyrrolo[2,3-b]pyridine] were, in that order, 45 nM, 45% and 15%.
Consider `Cn1cc(-c2c[nH]c3ncc(C4CCC5(CC4)OCCO5)cc23)cn1` [Compound I-19, 5-(1,4-Dioxa-spiro[4.5]dec-8-yl)-3-(1-methyl-1H-pyrazol-4-yl)-1H-pyrrolo[2,3-b]pyridine], for which the IC50 in assay [4] worked out at 25 nM. Further, the inhibition in vivo at 20 mg/kg worked out at 9% in assay [5] and 32% in assay [6].
The corresponding values for `CN1CCN([C@H]2CC[C@H](c3cnc4[nH]cc(-c5cnn(C)c5)c4c3)CC2)CC1` [Compound I-25, 3-(1-methyl-1H-pyrazol-4-yl)-5-((1r,4r)-4-(4-methylpiperazin-1-yl)cyclohexyl)-1H-pyrrolo[2,3-b]pyridine] are 90 nM, 80% and 25%.
The corresponding values for `CC(C)N1CCN([C@H]2CC[C@@H](c3cnc4[nH]cc(-c5cnn(C)c5)c4c3)CC2)CC1` [Compound I-44, 5-((1s,4s)-4-(4-isopropylpiperazin-1-yl)cyclohexyl)-3-(1-methyl-1H-pyrazol-4-yl)-1H-pyrrolo[2,3-b]pyridine] are 129 nM, 58% and 17%.
As for `CC(C)N1CCN([C@H]2CC[C@H](c3cnc4[nH]cc(-c5cnn(C)c5)c4c3)CC2)CC1` [Compound I-43, 5-((1r,4r)-4-(4-isopropylpiperazin-1-yl)cyclohexyl)-3-(1-methyl-1H-pyrazol-4-yl)-1H-pyrrolo[2,3-b]pyridine], the IC50 in assay [4] was 117 nM. Besides, the inhibition in vivo at 20 mg/kg in assay [5] is 74%; in assay [6], 0%.
The corresponding values for `CN1CCCN([C@H]2CC[C@H](c3cnc4[nH]cc(-c5cnn(C)c5)c4c3)CC2)CC1` [Compound I-37, 5-((1r,4r)-4-(4-methyl-1,4-diazepan-1-yl)cyclohexyl)-3-(1-methyl-1H-pyrazol-4-yl)-1H-pyrrolo[2,3-b]pyridine] are 69 nM, 51% and -3%.
Turning to `Cn1cc(-c2c[nH]c3ncc([C@H]4CC[C@@H](N5CCCC5)CC4)cc23)cn1` [Compound I-23, 3-(1-methyl-1H-pyrazol-4-yl)-5-((1s,4s)-4-(pyrrolidin-1-yl)cyclohexyl)-1H-pyrrolo[2,3-b]pyridine], the IC50 in assay [4] is 126 nM. The inhibition in vivo at 20 mg/kg in assay [5] came to 61%; in assay [6], 2%.
The corresponding values for `Cn1cc(-c2c[nH]c3ncc([C@H]4CC[C@@H](N5CCOCC5)CC4)cc23)cn1` [Compound I-7, 4-((1s,4s)-4-(3-(1-methyl-1H-pyrazol-4-yl)-1H-pyrrolo[2,3-b]pyridin-5-yl)cyclohexyl)morpholine] are 60 nM, 63% and 18%.

The values above are taken from US8178552B2, “7-Azaindole derivatives and their use in the inhibition of c-Jun N-terminal kinase” (Eisai R&D Management Co., Ltd., priority 2008, dated 2012).
